The values that follow come from PubChem BioAssay (NCI).

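Assay format: 96-well plates, 48-hour exposure. TGI is the concentration that stops growth completely.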

Holding throughout (test): inhibition of tumour cell growth, NCI panel, 48 h
Assay [1] has as its system OVCAR-5 ovarian.
Assay [2] deals with TK-10 renal.
Assay [3] relates to A549 NSCLC.
The test system of assay [4] is HCT-15 colon.
The subject of assay [5] is SF-295 CNS.
Assay [6] relates to COLO 205 colon.
The test system of assay [7] is HCC-2998 colon.
For assay [8], the system named is MOLT-4 leukemia.
For assay [9], the system named is LOX IMVI melanoma.
For assay [10], the system named is MCF7 breast.
The test system of assay [11] is UACC-257 melanoma.
In assay [12] the test system is MDA-N.
The test system of assay [13] is SNB-19 CNS.
Assay [14] deals with SF-539 CNS.
For assay [15], the system named is NCI-H23 lung.
The subject of assay [16] is 786-0 renal.
Assay [17] relates to RPMI-8226 leukemia.
The test system of assay [18] is MALME-3M melanoma.
Assay [19] relates to PC-3 prostate.

For `CCN(CC)/[N+]([O-])=N/OS(=O)(=O)N(C)C`, the TGI in assay [1], in assay [2], in assay [3], in [4], in assay [5] and in assay [6] was greater than 100 µM throughout. The TGI in [7], in assay [8], in assay [9], in assay [10], in assay [11] and in [12] was greater than 100 µM in each case. Also, the TGI in [13], in [14], in assay [15], in [16], in assay [17] and in assay [18] was greater than 100 µM in each case.
In the case of `COc1ccc(OC)c(/C=C2/C(=O)N=C(NC(C)=O)N2C)c1`, the TGI in [1], in assay [2], in [3], in assay [4], in assay [5] and in assay [6] was greater than 100 µM throughout. Also, the TGI in [7], in [8], in [9], in [10], in assay [11] and in assay [19] was greater than 100 µM in each case. Also, the TGI in [12], in [13], in assay [14], in assay [15] and in assay [16] was greater than 100 µM in each case.
Take `CS(=O)(=O)CCC1CCC(=O)O1` (stereo not given): the TGI in [1], in assay [2], in assay [3], in assay [4], in assay [5] and in assay [7] was greater than 100 µM throughout. In addition, the TGI in assay [8], in [9], in [10], in assay [11], in assay [19] and in assay [13] was greater than 100 µM each time. The TGI in assay [14], in assay [15], in assay [16], in assay [17] and in [18] was greater than 100 µM each time.
Regarding `CCN(CC)c1ccc(Cl)c2c1C(O)(C(C)C)C2(C)C` (stereo not given), the TGI came out at 30.6 µM in assay [1]; 30.2 µM in [2]; 35.1 µM in assay [3]; 44.9 µM in assay [4]; 33 µM in [5]; 28.9 µM in assay [6]. The TGI in assay [7] was determined as 30.3 µM; in assay [8] it was 35.8 µM; in assay [9], 35.1 µM; in assay [11] it was 27.6 µM; in assay [13], 28.7 µM; in assay [14] it was 34.2 µM. Besides, the TGI in assay [15] worked out at 29 µM; in assay [16], 27.7 µM; in [17], 31.2 µM; in assay [18], 27.4 µM.
As for `CN(Cc1cccc2ccsc12)/N=C\c1ccc(Cl)cc1`, the TGI in [1], in [2], in [3], in assay [4], in [5] and in assay [6] was greater than 100 µM in each case. In addition, the TGI in assay [7] is greater than 100 µM; in [8], greater than 100 µM; in assay [9] it was greater than 100 µM; in assay [10], greater than 100 µM; in [11], 95.4 µM; in [19], greater than 100 µM. For the same molecule, the TGI in assay [12], in assay [13], in assay [15], in assay [16] and in assay [18] was greater than 100 µM each time.
`CC1(C)CC(=O)C(C(=O)Nc2cccs2)=C(O)C1`: the TGI in assay [1] is greater than 100 µM; in assay [2], greater than 100 µM; in [3], greater than 100 µM; in [4] it was greater than 100 µM; in assay [5] it was greater than 100 µM; in assay [6], 33.7 µM. Moreover, the TGI in assay [7] was greater than 100 µM; in assay [8] it was 88.1 µM; in [9], greater than 100 µM; in assay [11] it was greater than 100 µM; in assay [13], greater than 100 µM; in assay [14], greater than 100 µM. For the same molecule, the TGI is 95.7 µM in [15], greater than 100 µM in assay [16], greater than 100 µM in assay [17] and greater than 100 µM in [18].
Take `COC(=O)N/N=c1\cc(C(=O)Nc2ccc(C)c(C)c2)oc2cc(O)ccc12`: the TGI in assay [1], in assay [2], in assay [3], in assay [4], in assay [5] and in assay [6] was greater than 100 µM each time. Moreover, the TGI in assay [7], in assay [8], in [9], in assay [11], in assay [13] and in assay [14] was greater than 100 µM throughout. Also, the TGI in assay [15], in assay [16] and in assay [18] was greater than 100 µM in each case.
With `COc1cc(Nc2nc3cc(C)ccc3nc2-c2ccccc2)cc(OC)c1OC`, the TGI in [1] was greater than 100 µM; in assay [2], greater than 100 µM; in assay [3], greater than 100 µM; in [4] it was 48.7 µM; in assay [5] it was 56 µM; in [6], 43.7 µM. Further, the TGI is 44.2 µM in [7]; 76.6 µM in assay [8]; greater than 100 µM in assay [9]; greater than 100 µM in assay [11]; greater than 100 µM in [13]; 57 µM in assay [15]. In addition, the TGI is 33.9 µM in [16] and 56.8 µM in assay [18].
